From patent US20240189278A1, “NOVEL COMPOUNDS AND METHODS FOR INCREASING KLOTHO GENE EXPRESSION” (Klotho Therapeutics, Inc., priority 2017, published 2024)

How the values were obtained:
Klotho gene expression = assay: Luciferase reporter assay to evaluate Klotho gene expression changes; assay type: cell-based; conditions: overnight incubation, luciferase luminescence
Protocol: Table 2. Luciferase Reporter Assay to Evaluate Klotho Gene Expression Changes
HEK293 cells/pKlotho_Luc in suspension (20 μl/well, density 0.25×10^6 cells/ml) were dispensed into assay-ready 384-well tissue culture treated plates (plates (BD BioCoat Poly-D-Lys coated, Cat.354661) preloaded with 1000× stock of test compounds in DMSO (20 nL/well, 10 concentration points, 3× dilutions from 20 uM to 0.001 uM). Growth medium: DMEM, 1% FBS, Pen/Strep, 600 ug/ml G418. Negative control: DMSO. Positive control: 2 uM Compound H from King, et. al. Biochem. J. (2012) 441, 453-461. Cells were incubated in CO2 incubator overnight. At the end of the incubation time, 20 ul/well of the luciferase assay solution (Steady-Luc Firefly HTS Assay Biotium, Cat 30028) were added to the plate and mixed on a VibraTranslator (Union Scientific). Plates were incubated for 5 min at 25° C. Steady glow luminescence signal was read using a BMG Labtech PHERAstar FSX reader.

aged male Wistar rats = assay: Aged rat efficacy model, blood pressure by tail-cuff method; assay type: in vivo
Protocol: The aim of the study was to assess the efficacy of test compound in improving physiologic parameters in aged rats such as blood pressure values. The experiment included daily repeated administrations of the test compound for 14 consecutive days and follow up observations within a […] post-dosing period. Body weight (BWt) were monitored daily during the dosing period and twice a week during the post-dosing period. Blood pressure (BP) was measured on 0, 7th, 14th, 21s t and 28th day of the study. Study design, animal selection, handling and treatment were all in accordance with the CROs efficacy study protocols and Standard Operation Procedure, and the Animal Care Guidelines.
Fifteen aged male Wistar rats (22.5 months old; initial body weights ranged from 474.8 g to 672.4 g with an average body weight across the groups of 540.8 g) were randomized into two groups by body weight and systolic blood pressure: 11 animals distributed to compound 49-treated group and 4 animals—to vehicle-treated group. […]
Blood pressure was measured by the Tail-Cuff Method using the Coda Non-invasive Blood-Pressure System. Individual body weights and relative changes in body weight (compared to the appropriate weight on Day 0) were recorded.

[1] = Homo sapiens, HEK293, HEK293 cells/pKlotho_Luc

Row | Compound | Activation, % (Klotho gene expression; HEK293 cells/pKlotho_Luc) | EC50 (Klotho gene expression; [1]) | EC50 (Klotho gene expression; HEK293 cells/pKlotho_Luc) | Systolic blood pressure within the treated group during the study (aged male Wistar rats; 50 mg/kg PO daily for 14 days, 28-day study) | Systolic blood pressure, treated group vs vehicle-treated group (aged male Wistar rats; 50 mg/kg PO daily, Day 14)
1 | C1=CCC(CNc2ncnc3c2ncn3C2CC2)CC1 (stereo not drawn) [Compound 1, N-[(cyclohex-3-en-1-yl)methyl]-9-cyclopropyl-9H-purin-6-amine] | 149% | 60 nM |  |  | 
2 | C1=C(CCNc2ncnc3[nH]ccc23)CCCCC1 [Compound 2, N-[2-(cyclohept-1-en-1-yl)ethyl]-7H-pyrrolo[2,3-d]pyrimidin-4-amine] | 94% | 70 nM |  |  | 
3 | C1=C(CCNc2cc(N3CCCC3)ncn2)CCCC1 [Compound 3] | 138% | 100 nM |  |  | 
4 | Fc1ccccc1-n1ncc2c(NCCC3=CCCCC3)ncnc21 [Compound 4] | 105% | 120 nM |  |  | 
5 | Fc1ccccc1-n1ncc2c(NCCC3=CCCCCC3)ncnc21 [Compound 5] | 61% | 120 nM |  |  | 
6 | C1=C(CCNc2cc(N3CCCCC3)ncn2)CCCC1 [Compound 6] | 98% | 140 nM |  |  | 
7 | C1=C(CCNc2ncnc3[nH]ccc23)CCCC1 [Compound 7] | 150% | 160 nM |  |  | 
8 | Cc1csc2ncnc(NCCC3=CCCCC3)c12 [Compound 8] | 145% | 160 nM |  |  | 
9 | C1=C(CCNc2ncnc3sccc23)CCCCC1 [Compound 9] | 81% | 180 nM |  |  | 
10 | Nc1c(NCCC2=CCCCCC2)ncnc1-n1cccn1 [Compound 10] | 98% | 200 nM |  |  | 
11 | Nc1c(NCCC2=CCCCC2)ncnc1-n1cccn1 [Compound 11] | 125% | 210 nM |  |  | 
12 | Cc1csc2ncnc(NCCC3=CCCCCC3)c12 [Compound 12] | 98% | 210 nM |  |  | 
13 | Fc1cccc2ncnc(NCCC3=CCCCC3)c12 [Compound 13] | 86% | 250 nM |  |  | 
14 | N#CCCn1ncc2c(NCCC3=CCCCCC3)ncnc21 [Compound 14] | 122% | 260 nM |  |  | 
15 | C1=C(CCNc2ncnc3c2cnn3-c2ccccc2)CCCC1 [Compound 15] | 203% | 270 nM |  |  | 
16 | CCn1ncc2c(NCCC3=CCCCC3)ncnc21 [Compound 16] | 151% | 370 nM |  |  | 
17 | CN(CCC1CCCCC1)c1ncnc2c1ncn2C1CC1 [Compound 17] | 114% | 380 nM |  |  | 
18 | Cc1cc2c(NCCC3=CCCCCC3)ncnc2s1 [Compound 18] | 48% | 450 nM |  |  | 
19 | C1=CCC(CCNc2ncnc3c2ncn3C2CC2)CC1 (stereo not drawn) [Compound 19] | 152% | 500 nM |  |  | 
20 | N#CCCn1ncc2c(NCCC3=CCCCC3)ncnc21 [Compound 20] | 120% | 600 nM |  |  | 
21 | Cc1cc2c(NCCC3=CCCCC3)ncnc2s1 [Compound 21] | 133% | 680 nM |  |  | 
22 | C1=C(CCNc2ncnc3c2cnn3-c2ccccc2)CCCCC1 [Compound 22] | 96% | 770 nM |  |  | 
23 | C1=C(CCNc2ncnc3sccc23)CCCC1 [Compound 23] | 133% | 850 nM |  |  | 
24 | C1=C(CCNc2ncnc3ccsc23)CCCCC1 [Compound 24] | 122% | 880 nM |  |  | 

Row | Compound | Activation, % (Klotho gene expression; HEK293 cells/pKlotho_Luc) | EC50 (Klotho gene expression; [1]) | EC50 (Klotho gene expression; HEK293 cells/pKlotho_Luc) | Systolic blood pressure within the treated group during the study (aged male Wistar rats; 50 mg/kg PO daily for 14 days, 28-day study) | Systolic blood pressure, treated group vs vehicle-treated group (aged male Wistar rats; 50 mg/kg PO daily, Day 14)
25 | CCn1ncc2c(NCCC3CC=CCC3)ncnc21 (stereo not drawn) [Compound 26] | 121% | 920 nM |  |  | 
26 | C1=C(CCNc2ncnc3scnc23)CCCCC1 [Compound 27] | 101% | 920 nM |  |  | 
27 | CCC1(CC)CCCN(c2ncnc3c2ncn3C2CC2)CC1 [Compound 28] | 101% | 1000 nM |  |  | 
28 | C1=C(CCNc2ncnc3scnc23)CCCC1 [Compound 29] | 103% | 1100 nM |  |  | 
29 | c1nc(NCCC2CCCC2)c2ncn(C3CC3)c2n1 [Compound 30] | 87% | 1200 nM |  |  | 
30 | c1nc(NCCC2CCCCC2)c2ncn(C3CC3)c2n1 [Compound 31] | 109% | 1100 nM |  |  | 
31 | CC(C)CCNc1ncnc2c1ncn2C1CC1 [Compound 32] | 77% | 730 nM |  |  | 
32 | c1nc(NCC2CCCCC2)c2ncn(C3CC3)c2n1 [Compound 33] | 89% | 380 nM |  |  | 
33 | Clc1cccc(CNc2ncnc3c2ncn3C2CC2)c1 [Compound 34] | 102% | 2000 nM |  |  | 
34 | CC(C)CNc1ncnc2c1ncn2C1CC1 [Compound 35] | 40% | 1500 nM |  |  | 
35 | c1nc(NCC2CCC2)c2ncn(C3CC3)c2n1 [Compound 36] | 68% | 830 nM |  |  | 
36 | C1=C(CCNc2ncnc3c2ncn3C2CC2)CCCC1 [Compound 37] | 103% | 70 nM |  |  | 
37 | C1=C(CCNc2ncnc3c2ncn3C2CC2)CCCCC1 [Compound 38] | 105% | 340 nM |  |  | 
38 | CC1(CNc2ncnc3c2ncn3C2CC2)CCCCC1 [Compound 39] | 77% | 3600 nM |  |  | 
39 | CC1(CNc2ncnc3c2ncn3C2CC2)CCCC1 [Compound 40] | 89% | 2900 nM |  |  | 
40 | c1ccc([C@@H]2C[C@H]2Nc2ncnc3c2ncn3C2CC2)cc1 [Compound 41] |  | > 30000 nM |  |  | 
41 | C1=C(CCNc2ncnc3c2ncn3C2CC2)CCC1 [Compound 42] | 79% | 620 nM |  |  | 
42 | Clc1ccc(CNc2ncnc3c2ncn3C2CC2)cc1Cl [Compound 43] |  | > 30000 nM |  |  | 
43 | CC(C)(CNc1ncnc2c1ncn2C1CC1)C1=CCCCC1 [Compound 44] | 58% | 23800 nM |  |  | 
44 | CC1(C)CCC(CNc2ncnc3c2ncn3C2CC2)CC1 [Compound 45] | 59% | 13100 nM |  |  | 
45 | c1nc(NCC23CCC(CC2)CC3)c2ncn(C3CC3)c2n1 [Compound 46] | 86% | 1700 nM |  |  | 
46 | FC1(CNc2ncnc3c2ncn3C2CC2)CCCCC1 [Compound 47] | 86% | 900 nM |  |  | 
47 | C1=CC[C@@H](CNc2ncnc3c2ncn3C2CC2)CC1 [Compound 48] | 86% | 160 nM |  |  | 
48 | C1=CC[C@@H](CNc2ncnc3c2ncn3C2CC2)CC1 [Compound 49] | 90% |  | 100 nM | considerable decrease | Significant difference
